Results on two molecules are retold here after patent publication US4904673A, “Agent for treating bradycardia and bradyarrhythmia” (Dr. Karl Thomae, GmbH, priority 1988, dated 1990).

The target of assay [1] is muscarinic receptors in cerebral cortex. The assay can be described thus: Receptor binding test in vitro, 3H-NMS displacement, cerebral cortex homogenate. The settings on record: rat cerebral cortex homogenate 1:3000; 0.3 nanomolar 3H-NMS; 30° C., 45 minutes; read-out: Receptor Binding Tests IC50 Cortex. As to the method: The organs were donated by male Sprague-Dawley rats weighing 180-220 g. After the heart and subman-dibular gland and cerebral cortex had been removed, all other steps were carried out in ice cold Hepes HCl buffer (pH 7.4; 100 millimolar NaCl, 10 millimolar MgCl2). The whole heart was cut up with scissors. All the organs were then homogenised in a Potter apparatus.
(§1) For the binding test the homogenised organs were diluted as follows:
The homogenised organs were incubated at a certain concentration of the radioligand and at a series of concentrations of the non-radioactive test substances in an Eppendorf centrifuge tube at 30° C. Incubation lasted 45 minutes. The radioligand used was 0.3 nanomolar ^3 H-N-methylscopolamine (^3 H-NMS). Incubation was ended by the addition of ice cold buffer followed by vaccum filtration. The filters were rinsed with cold buffer and their radioactivity was determined. It represents the sum of specific and non-specific binding of ^3 H-NMS.
The proportion of non-specific binding was defined as the radioactivity which was bound in the presence of 1 micromolar quinuclidinyl-benzylate. Each measurement was taken four times. The IC^50 values of the non-labelled test substances were determined graphically. They represent that concentration of test substance at which the specific binding of ^3 H-NMS to the muscarinic receptors in the various organs was inhibited by 50%.

In assay [2] the target is T1, muscarinic receptors in submandibular gland (Rattus norvegicus, UniProt P08483).
T1 construct: All the organs were then homogenised in a Potter apparatus; from tissue; host or cells: submandibular gland of male Sprague-Dawley rats, homogenate diluted 1:400
The experiment in a line: Receptor binding test in vitro, 3H-NMS displacement, submandibular gland homogenate. The settings on record: rat submandibular gland homogenate 1:400; 0.3 nanomolar 3H-NMS; 30° C., 45 minutes; read-out: Receptor Binding Tests IC50 Submandibular gland. As to the method: (§2) The organs were donated by male Sprague-Dawley rats weighing 180-220 g. […] The whole heart was cut up with scissors. All the organs were then homogenised in a Potter apparatus.
as §1
Submandibular gland 1:400
(§3) Incubation lasted 45 minutes. The radioligand used was 0.3 nanomolar ^3 H-N-methylscopolamine (^3 H-NMS). […] The filters were rinsed with cold buffer and their radioactivity was determined. It represents the sum of specific and non-specific binding of ^3 H-NMS.
(§4) Each measurement was taken four times. […] They represent that concentration of test substance at which the specific binding of ^3 H-NMS to the muscarinic receptors in the various organs was inhibited by 50%.

The test system of assay [3] is acetylcholine effect on bronchi. The assay can be described thus: Inhibition of the effect of acetylcholine on bronchi (expiration resistance, Konzett-Rossler) in anaesthetised guinea pigs. Format: in vivo, guinea pig. The settings on record: Cavia porcellus, iv, 5 min, 10 microgram/kg acetylcholine i.v. and intra-arterially 5 minutes after test substance, read-out: -log ED50 Bronchi (converted). How it is done:
(§5) Substances with antimuscarinic properties inhibit the effects of agonists supplied exogenically or of acetylcholine, which is released from cholinergic nerve endings. The following is a description of an "in vivo" method which is suitable for the detection of cardioselective antimuscarinic agents.
(§6) Inhibition of the effect of acetylcholine on the bladder, bronchi and heart rate in guinea pigs
(§7) 5 minutes after the administration of the test substance, 10 microgram/kg of acetylcholine were simultaneously injected intravenously and intra-arterially into anaesthetised guinea pigs. The heart rate was recorded directly by extracorporeal derivation of the ECG, as were the expiration resistance according to Konzett-Rossler and the contraction of the exposed bladder. In order to determine the inhibition of the acetylcholine activity on the organs under investigation, dosage/activity curves were recorded and from them -log ED50 values were determined. For the results see Table II.

The target of assay [4] is T2, muscarinic receptors in heart (Rattus norvegicus, UniProt P10980).
T2 construct: The whole heart was cut up with scissors; from tissue; host or cells: whole heart of male Sprague-Dawley rats, homogenate diluted 1:400
T2 sequence (P10980 1-466): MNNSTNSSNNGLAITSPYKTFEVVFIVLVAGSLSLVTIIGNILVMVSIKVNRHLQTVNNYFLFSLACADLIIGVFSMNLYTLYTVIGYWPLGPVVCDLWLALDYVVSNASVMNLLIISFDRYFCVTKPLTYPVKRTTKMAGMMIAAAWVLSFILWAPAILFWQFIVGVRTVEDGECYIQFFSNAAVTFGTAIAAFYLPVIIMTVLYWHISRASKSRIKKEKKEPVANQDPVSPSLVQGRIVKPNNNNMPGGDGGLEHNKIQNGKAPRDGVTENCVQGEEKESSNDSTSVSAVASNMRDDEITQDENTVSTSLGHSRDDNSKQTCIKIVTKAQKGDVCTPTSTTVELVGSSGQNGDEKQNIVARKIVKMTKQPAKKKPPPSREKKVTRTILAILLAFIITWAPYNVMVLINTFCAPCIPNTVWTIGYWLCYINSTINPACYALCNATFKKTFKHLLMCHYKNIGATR
The assay can be described thus: Receptor binding test in vitro, 3H-NMS displacement, whole heart homogenate. To be noted: rat whole heart homogenate 1:400; 0.3 nanomolar 3H-NMS; 30° C., 45 minutes; read-out: Receptor Binding Tests IC50 Heart. As to the method: as §2, §1, §3, §4

For assay [5], the system named is acetylcholine effect on bladder. The experiment in a line: Inhibition of the effect of acetylcholine on contraction of the exposed bladder in anaesthetised guinea pigs. Type of assay: in vivo, guinea pig. The settings on record: Cavia porcellus, iv, 5 min, 10 microgram/kg acetylcholine i.v. and intra-arterially 5 minutes after test substance, read-out: -log ED50 Bladder (converted). As to the method: as §5, §6, §7

For assay [6], the system named is acetylcholine effect on heart rate. The assay can be described thus: Inhibition of the effect of acetylcholine on heart rate in anaesthetised guinea pigs. Format: in vivo, guinea pig. The settings on record: Cavia porcellus, iv, 5 min, 10 microgram/kg acetylcholine i.v. and intra-arterially 5 minutes after test substance, heart rate by ECG, read-out: -log ED50 Heart (converted). How it is done:
as §5, §6, §7

SMILES strings stand for the structures.

T1 sequence (P08483 whole entry): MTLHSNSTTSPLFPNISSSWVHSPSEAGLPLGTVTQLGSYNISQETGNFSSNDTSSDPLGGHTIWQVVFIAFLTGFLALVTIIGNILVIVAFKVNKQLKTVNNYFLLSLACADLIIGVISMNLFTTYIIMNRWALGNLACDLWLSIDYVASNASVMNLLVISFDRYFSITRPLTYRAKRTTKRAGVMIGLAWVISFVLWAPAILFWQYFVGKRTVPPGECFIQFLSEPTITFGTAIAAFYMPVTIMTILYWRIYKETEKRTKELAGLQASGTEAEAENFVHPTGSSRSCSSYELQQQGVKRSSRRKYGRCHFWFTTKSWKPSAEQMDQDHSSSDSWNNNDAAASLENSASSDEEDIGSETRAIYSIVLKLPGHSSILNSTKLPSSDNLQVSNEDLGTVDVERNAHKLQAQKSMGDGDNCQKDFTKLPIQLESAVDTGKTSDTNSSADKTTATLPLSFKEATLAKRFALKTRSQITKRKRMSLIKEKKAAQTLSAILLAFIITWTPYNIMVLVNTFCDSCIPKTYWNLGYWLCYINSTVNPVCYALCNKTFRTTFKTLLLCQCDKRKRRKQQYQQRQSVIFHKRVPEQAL

`CCN(CCCC(=O)N1CCC(C(=O)N(C)C)CC1)C(C)Cc1ccc(OC)cc1` (racemic) [A, (±)-1-[4-[ethyl[2-(4-methoxyphenyl)-1-methylethyl]amino]-1-oxobutyl]-N,N-dimethyl-4-piperidine carboxamide]: the half-inhibitory concentration (IC50) in assay [1] was determined as 50 nM; in assay [2], 300 nM; in assay [4], 10 nM. The ED50 was 0.148 µmol/kg in assay [3], 0.513 µmol/kg in assay [5] and 0.0646 µmol/kg in assay [6].

As to `CN1[C@@H]2CC[C@H]1C[C@@H](OC(=O)C(CO)c1ccccc1)C2` (stereo partly shown) [B, atropine, reference compound], the IC50 in assay [1] is 2 nM.

As usually defined, the IC50 is the midpoint of a concentration-inhibition curve. For orientation: ED50 means the dose that gives a 50% effect, or the effect in half of the subjects.
